Experimental data reported in patent US8952024B2, “Herbicidal pyrimidone derivatives” (E I du Pont de Nemours and Company, priority 2009, dated 2015).
Where two headings read alike, the source gives them in different places.

Columns and labels:
Assay type in all cases: in vivo
rice (Oryza sativa) = test: Test B flooded paddy test; settings: Oryza sativa
Method in brief: (§1)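 Plants were grown to the 2-leaf stage, then pots were flooded to 3 cm above the soil and compounds were applied directly into the paddy water. That depth was held throughout. After 13 to 15 days in a greenhouse, injury was visually rated against controls on a 0–100 scale.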

[1] = tested on: ducksalad (Heteranthera limosa); test: Test B flooded paddy test; settings: Heteranthera limosa, 360 h
Method in brief: as §1

[2] = tested on: barnyardgrass (Echinochloa crus-galli); test: Test B flooded paddy test; settings: Echinochloa crus-galli, 360 h
Method in brief: as §1

[3] = tested on: umbrella sedge (Cyperus difformis); test: Test B flooded paddy test; settings: Cyperus difformis, 360 h
Method in brief: as §1

[4] = tested on: ragweed (common ragweed, Ambrosia elatior); test: Test B pre-/postemergence plant response; settings: for pest or weed control at 31 g/ha: 31 g ai/ha; for pest or weed control at 62 g/ha: 62 g ai/ha
Method in brief: (§2)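 Visually scored on a 0 to 100 scale after 13 to 15 days in greenhouse versus controls. Treatments were preemergence on seeded loam/sand soil and postemergence on 1- to 4-leaf plants.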

[5] = tested on: giant foxtail (Setaria faberii); test: Test B pre-/postemergence plant response; settings: for pest or weed control at 16 g/ha: 16 g ai/ha; for pest or weed control at 16 g/ha / pest or weed control at 31 g/ha / pest or weed control at 62 g/ha: read-out: Plant response rating, Foxtail, Giant; for pest or weed control at 31 g/ha: 31 g ai/ha; for pest or weed control at 62 g/ha: 62 g ai/ha
Method in brief: as §2

[6] = tested on: nightshade (eastern black nightshade, Solanum ptycanthum); test: Test B pre-/postemergence plant response; settings: Preemergence
Method in brief: as §2

[7] = tested on: sunflower (common oilseed sunflower, Helianthus annuus); test: Test B pre-/postemergence plant response; settings: Preemergence
Method in brief: as §2

[8] = tested on: Italian ryegrass (Lolium multiflorum); test: Test B pre-/postemergence plant response; settings: for pest or weed control at 31 g/ha: 31 g ai/ha; for pest or weed control at 62 g/ha: 62 g ai/ha
Method in brief: as §2

[9] = tested on: chickweed (Stellaria media); test: Test B postemergence plant response; settings: Stellaria media, post-emergence, 360 h, Postemergence
Method in brief: (§3)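 Visual ratings from 0 (no effect) to 100 (complete control), made against controls 13–15 days after treatment, kept in a greenhouse. Compounds were applied postemergence to potted plants at the 1- to 4-leaf stage (2–18 cm).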

[10] = tested on: windgrass (Apera spica-venti); test: Test B postemergence plant response; settings: Apera spica-venti, post-emergence, 360 h, Postemergence
Method in brief: as §3

[11] = tested on: winter barley (Hordeum vulgare); test: Test B postemergence plant response; settings: Hordeum vulgare, post-emergence, Postemergence, read-out: Plant response rating, Barley
Method in brief: as §3

[12] = tested on: canarygrass (Phalaris minor); test: Test B postemergence plant response; settings: Phalaris minor, post-emergence, 360 h, Postemergence
Method in brief: as §3

[13] = Ambrosia artemisiifolia, pre-emergence, 360 h, Preemergence, scale 0 to 100 (0 no effect, 100 complete control), read-out: Plant response rating, Ragweed
[14] = Preemergence, 125 g ai/ha, 0 to 100 scale
[15] = Setaria faberi, pre-emergence, Preemergence, scale 0 to 100 (0 no effect, 100 complete control)
[16] = 31 g ai/ha, scale 0 to 100 (0 no effect, 100 complete control)
[17] = 62 g ai/ha, scale 0 to 100, 0 no effect, 100 complete control
[18] = Lolium multiflorum, pre-emergence, Preemergence, scale 0 to 100 (0 no effect, 100 complete control), read-out: Plant response rating, Ryegrass, Italian
[19] = 125 g ai/ha, visual rating after 13 to 15 days, scale 0 (no effect) to 100 (complete control)

O=C1CCCC(O)=C1C(=O)c1cnc(-c2ccccc2)n(-c2ccccc2)c1=O [Compound 2, 5-[(2-hydroxy-6-oxo-1-cyclohexen-1-yl)carbonyl]-2,3-diphenyl-4(3H)-pyrimidinone]
plant injury at 250 g/ha (rice (Oryza sativa); 250 g ai/ha, flooded paddy test, visual rating on 0 to 100 scale (0 no effect, 100 complete control) after 13 to 15 days, read-out: Plant response rating, Flood, Rice): 8%
plant injury at 31 g/ha (rice (Oryza sativa); Flood (flooded paddy test), 31 g ai/ha, scale of 0 to 100 where 0 is no effect and 100 is complete control, 13 to 15 days, read-out: Plant response rating, Rice): 0%
plant injury at 62 g/ha (rice (Oryza sativa); Flood (flooded paddy test), 62 g ai/ha, scale 0 to 100, 0 is no effect, 100 is complete control, 13 to 15 days, read-out: Plant response rating, Rice): 0%
plant injury at 125 g/ha (rice (Oryza sativa); Flood (flooded paddy test), 125 g ai/ha, scale 0 to 100, 0 is no effect, 100 is complete control, 13 to 15 days, read-out: Plant response rating, Rice): 0%
pest or weed control at 250 g/ha ([1]; 250 g ai/ha, flooded paddy test, visual rating on 0 to 100 scale (0 no effect, 100 complete control) after 13 to 15 days, read-out: Plant response rating, Flood, Ducksalad): 78%
pest or weed control at 31 g/ha ([1]; Flood (flooded paddy test), 31 g ai/ha, scale of 0 to 100 where 0 is no effect and 100 is complete control, 13 to 15 days, read-out: Plant response rating, Ducksalad): 15%
pest or weed control at 62 g/ha ([1]; Flood (flooded paddy test), 62 g ai/ha, scale 0 to 100, 0 is no effect, 100 is complete control, 13 to 15 days, read-out: Plant response rating, Ducksalad): 40%
pest or weed control at 125 g/ha ([1]; Flood (flooded paddy test), 125 g ai/ha, scale 0 to 100, 0 is no effect, 100 is complete control, 13 to 15 days, read-out: Plant response rating, Ducksalad): 58%
pest or weed control at 250 g/ha ([2]; 250 g ai/ha, flooded paddy test, visual rating on 0 to 100 scale (0 no effect, 100 complete control) after 13 to 15 days, read-out: Plant response rating, Flood, Barnyardgrass): 0%
pest or weed control at 31 g/ha ([2]; Flood (flooded paddy test), 31 g ai/ha, scale of 0 to 100 where 0 is no effect and 100 is complete control, 13 to 15 days, read-out: Plant response rating, Barnyardgrass): 0%
pest or weed control at 62 g/ha ([2]; Flood (flooded paddy test), 62 g ai/ha, scale 0 to 100, 0 is no effect, 100 is complete control, 13 to 15 days, read-out: Plant response rating, Barnyardgrass): 0%
pest or weed control at 125 g/ha ([2]; Flood (flooded paddy test), 125 g ai/ha, scale 0 to 100, 0 is no effect, 100 is complete control, 13 to 15 days, read-out: Plant response rating, Barnyardgrass): 0%
pest or weed control at 250 g/ha ([3]; 250 g ai/ha, flooded paddy test, visual rating on 0 to 100 scale (0 no effect, 100 complete control) after 13 to 15 days, read-out: Plant response rating, Flood, Sedge, Umbrella): 75%
pest or weed control at 31 g/ha ([3]; Flood (flooded paddy test), 31 g ai/ha, scale of 0 to 100 where 0 is no effect and 100 is complete control, 13 to 15 days, read-out: Plant response rating, Sedge, Umbrella): 0%
pest or weed control at 62 g/ha ([3]; Flood (flooded paddy test), 62 g ai/ha, scale 0 to 100, 0 is no effect, 100 is complete control, 13 to 15 days, read-out: Plant response rating, Sedge, Umbrella): 0%
pest or weed control at 125 g/ha ([3]; Flood (flooded paddy test), 125 g ai/ha, scale 0 to 100, 0 is no effect, 100 is complete control, 13 to 15 days, read-out: Plant response rating, Sedge, Umbrella): 45%
pest or weed control at 16 g/ha ([4]; Ambrosia artemisiifolia, post-emergence, 360 h, 16 g ai/ha, Postemergence, 0 to 100 scale, read-out: Plant response rating, Ragweed): 65%
pest or weed control at 31 g/ha ([4]; Ambrosia artemisiifolia, post-emergence, 360 h, Postemergence, scale 0 to 100 (0 no effect, 100 complete control), read-out: Plant response rating, Ragweed): 70%
pest or weed control at 62 g/ha ([4]; Ambrosia artemisiifolia, post-emergence, 360 h, Postemergence, scale 0 (no effect) to 100 (complete control), 13 to 15 days, read-out: Plant response rating, Ragweed): 80%
pest or weed control at 125 g/ha ([4]; Ambrosia artemisiifolia, post-emergence, 360 h, Postemergence, 125 g ai/ha, visual rating after 13 to 15 days, scale 0 (no effect) to 100 (complete control)): 90%
pest or weed control at 31 g/ha [4, 13]: 60%
pest or weed control at 62 g/ha [4, 13]: 85%
Ragweed plant response rating [4, 14]: 98
Foxtail, Giant plant response rating [5, 14]: 70
pest or weed control at 16 g/ha ([5]; Setaria faberi, post-emergence, Postemergence, 0 to 100 scale): 70%
pest or weed control at 31 g/ha ([5]; Setaria faberi, post-emergence, Postemergence, scale 0 to 100 (0 no effect, 100 complete control)): 85%
pest or weed control at 62 g/ha ([5]; Setaria faberi, post-emergence, Postemergence, scale 0 (no effect) to 100 (complete control), 13 to 15 days): 85%
pest or weed control at 125 g/ha ([5]; Setaria faberi, post-emergence, Postemergence, 125 g ai/ha, visual rating after 13 to 15 days, scale 0 (no effect) to 100 (complete control)): 85%
pest or weed control at 16 g/ha [5, 15]: 0%
pest or weed control at 31 g/ha [5, 15]: 15%
pest or weed control at 62 g/ha ([5]; Setaria faberi, pre-emergence, Preemergence, scale 0 to 100, 0 no effect, 100 complete control): 20%
Plant response rating, Nightshade ([6]; 16 g ai/ha, scale 0 to 100, 0 no effect, 100 complete control): 55
Plant response rating, Nightshade [6, 16]: 98
Plant response rating, Nightshade [6, 17]: 100
Nightshade plant response rating ([6]; 125 g ai/ha, 0 to 100 scale): 100
Plant response rating, Sunflower [7, 16]: 50
Plant response rating, Sunflower [7, 17]: 70
Sunflower plant response rating ([7]; 125 g ai/ha, 0 to 100 scale): 90
pest or weed control at 16 g/ha ([8]; Lolium multiflorum, post-emergence, 16 g ai/ha, Postemergence, 0 to 100 scale, read-out: Plant response rating, Ryegrass, Italian): 0%
pest or weed control at 31 g/ha ([8]; Lolium multiflorum, post-emergence, Postemergence, scale 0 to 100 (0 no effect, 100 complete control), read-out: Plant response rating, Ryegrass, Italian): 0%
pest or weed control at 62 g/ha ([8]; Lolium multiflorum, post-emergence, Postemergence, scale 0 (no effect) to 100 (complete control), 13 to 15 days, read-out: Plant response rating, Ryegrass, Italian): 40%
pest or weed control at 125 g/ha ([8]; Lolium multiflorum, post-emergence, Postemergence, 125 g ai/ha, visual rating after 13 to 15 days, scale 0 (no effect) to 100 (complete control)): 40%
pest or weed control at 31 g/ha [8, 18]: 0%
pest or weed control at 62 g/ha [8, 18]: 0%
Ryegrass, Italian plant response rating [8, 14]: 5
pest or weed control at 16 g/ha ([9]; 16 g ai/ha, 0 to 100 scale, read-out: Plant response rating, Chickweed): 70%
pest or weed control at 31 g/ha ([9]; 31 g ai/ha, scale 0 to 100 (0 no effect, 100 complete control), read-out: Plant response rating, Chickweed): 75%
pest or weed control at 62 g/ha ([9]; 62 g ai/ha, scale 0 (no effect) to 100 (complete control), 13 to 15 days, read-out: Plant response rating, Chickweed): 90%
pest or weed control at 125 g/ha [9, 19]: 95%
pest or weed control at 16 g/ha ([10]; 16 g ai/ha, 0 to 100 scale, read-out: Plant response rating, Windgrass): 10%
pest or weed control at 31 g/ha ([10]; 31 g ai/ha, scale 0 to 100 (0 no effect, 100 complete control), read-out: Plant response rating, Windgrass): 10%
pest or weed control at 62 g/ha ([10]; 62 g ai/ha, scale 0 (no effect) to 100 (complete control), 13 to 15 days, read-out: Plant response rating, Windgrass): 15%
pest or weed control at 125 g/ha [10, 19]: 50%
plant injury at 16 g/ha ([11]; 16 g ai/ha, 0 to 100 scale): 0%
plant injury at 31 g/ha [11, 16]: 10%
plant injury at 62 g/ha ([11]; 62 g ai/ha, scale 0 (no effect) to 100 (complete control), 13 to 15 days): 20%
plant injury at 125 g/ha ([11]; 125 g ai/ha, scale 0 to 100 (0 no effect, 100 complete control), 13 to 15 days): 30%
pest or weed control at 16 g/ha ([12]; 16 g ai/ha, 0 to 100 scale, read-out: Plant response rating, Canarygrass): 20%
pest or weed control at 31 g/ha ([12]; 31 g ai/ha, scale 0 to 100 (0 no effect, 100 complete control), read-out: Plant response rating, Canarygrass): 40%
pest or weed control at 62 g/ha ([12]; 62 g ai/ha, scale 0 (no effect) to 100 (complete control), 13 to 15 days, read-out: Plant response rating, Canarygrass): 50%
pest or weed control at 125 g/ha [12, 19]: 80%
